Data on 2 compounds can be found in patent US9714247B2, “Multiple kinase pathway inhibitors” (Mannkind Corporation, priority 2012, dated 2017).

For one experiment, the target named is BTK (Homo sapiens (Human), UniProt Q06187).
Experiment [1] deals with Ramos. Description: CellTiter-Glo proliferation/viability assay. It counts as cell-based, human. The note with it: Homo sapiens, Ramos.
Another experiment deals with DoHH2 cells. The note with it: treated 24 hours.
For experiment [2], the system named is phosphorylation of SFKs in Ramos cells. As to the kind of experiment: SFK phosphorylation (Tyr 416) by Western blotting. The format is cell-based, human. The note with it: pretreated 2 hours. How it is done:
Ramos cell lysates from stimulated and unstimulated cells were analyzed for the levels of phosphorylated SRC family members. As described in Example 82 (above), cells were pretreated for 2 hours with an amino naphthyridinones and then stimulated with anti-IgM antibody and H2O2, protein lysates were prepared, quantified and used for Western blotting. A commercially available antibody that detects Src phosphorylated at Tyr 416 (Cell Signalling) and may cross-react with other Src family members such as Lyn, Fyn, Lck, Yes and Hck when phosphorylated at equivalent sites was used for Western blot analysis. The molecular weights of SFK family members are quite similar (in the 55-60 kDa range) and different family members cannot be resolved by the conditions used for the Western blot. […] The procedure can be similarly adapted for flow cytometric analysis as with the PLC-γ2 assay in Example 82. Ramos cells were incubated with Compound 1 for 2 hrs in RPMI media with 5% FBS prior to stimulation stimulated with H2O2/anti-IgM/F(Ab) for 10 minutes. Cells were evaluated by FACS analysis using anti-pSRC antibody and FITC-conjugated goat anti-rabbit secondary antibody following overnight storage at 4° C. in BD perm/wash buffer.
On the technique in general: Immunoblotting shows a protein as a band on a membrane.

Experiment [3] has as its target T1, Lyn (Homo sapiens (Human), UniProt P07948). The note with it: read-out: Lyn IC50.
Experiment [4] has as its system DoHH2. As to the kind of experiment: CellTiter-Glo proliferation/viability assay. The format is cell-based, human. The note with it: Homo sapiens, DOHH-2. In general terms: In ATP-based viability assays light output follows the ATP content of the culture.
Experiment [5] concerns the target T1, Lyn. As to the kind of experiment: biochemical.
Experiment [6] relates to PLCγ2 phosphorylation in Ramos cells. Description: PLCγ2 phosphorylation by Western blotting. It counts as cell-based, human. The note with it: anti-IgM/H2O2 stimulation, Tyr1217. Here is the method:
Ramos cells were cultured in RPMI 1640 media with 10% FBS and were starved overnight (18 h) in 1% FBS containing media and on the next day pretreated with inhibitor for 2 h before stimulation. Cells were stimulated to induce BTK network dependent signal transduction pathways using mouse anti-human IgM (final concentration 10 ug/ml; Invitrogen) antibodies and 3.3 mM H2O2 mixture for 2 minutes followed by F(Ab) fragment that cross-linked the anti-IgM antibody (final concentration 10 ug/ml), and 3.3 mM H2O2 for 8 minutes. Cell lysates were prepared in lysis buffer containing protease and phosphatase inhibitors, quantified using the BCA protein assay kit (Pierce) and used for Western blotting. Antibodies specifically targeted to the molecules of interest, PLCγ2 phosphorylated at Tyr1217 and total PLCγ2, (Cell Signaling Technology) were used in a standard Western blotting procedure.
Phosphorylation of PLCγ2 at Tyr1217 along with Tyr753, Tyr759 and Tyr1197 is correlated with increased PLCγ2 activity. The readout for BTK network signaling was inhibition of phosphorylation of PLCγ2 induced by the anti-IgM treatment.

The target of the next experiment is Src (Homo sapiens (Human), UniProt P12931). Description: biochemical.
Src, sequence (P12931 whole entry, looked up): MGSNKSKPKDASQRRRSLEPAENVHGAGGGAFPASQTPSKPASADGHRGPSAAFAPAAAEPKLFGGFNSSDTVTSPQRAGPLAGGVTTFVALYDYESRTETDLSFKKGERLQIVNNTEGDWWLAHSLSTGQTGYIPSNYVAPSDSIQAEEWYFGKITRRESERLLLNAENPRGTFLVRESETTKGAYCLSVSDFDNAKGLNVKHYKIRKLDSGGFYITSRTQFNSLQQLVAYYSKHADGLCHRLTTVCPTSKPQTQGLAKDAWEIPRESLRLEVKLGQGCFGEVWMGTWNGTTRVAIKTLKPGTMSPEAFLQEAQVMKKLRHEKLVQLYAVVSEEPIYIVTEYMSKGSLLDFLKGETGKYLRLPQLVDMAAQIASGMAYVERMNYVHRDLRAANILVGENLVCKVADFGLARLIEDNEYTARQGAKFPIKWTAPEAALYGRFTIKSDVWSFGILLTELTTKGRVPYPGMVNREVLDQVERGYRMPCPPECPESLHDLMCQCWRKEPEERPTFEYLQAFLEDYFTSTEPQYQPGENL
The subject of experiment [7] is PLCγ2 phosphorylation in Ramos cells. As to the kind of experiment: PLCγ2 phosphorylation by flow cytometry. The format is cell-based, human. The note with it: Homo sapiens, flow cytometry, anti-phospho PLCγ2 (Tyr1217), four concentrations, read-out: Inhibition of phosphorylation of PLC-γ2 EC50. The essentials:
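Ramos cells starved 18 h in 1% FBS, pretreated with inhibitor 2 h, then stimulated with anti-IgM (10 ug/ml final) plus 3.3 mM H2O2 for 2 min, then cross-linking F(ab) (10 ug/ml) plus H2O2 for 8 min. Fixed, permeabilized cells stained with PE anti-phospho-PLCγ2 (Tyr1217 or Tyr759), dead cells gated out; ED50 from geometric mean fluorescence over four inhibitor concentrations.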
Background: In flow cytometry, cells or beads pass a laser one at a time.

Experiment [8] has as its system DoHH2. The note with it: cited from earlier work.
The next experiment relates to PC3. Description: Proliferation/viability assay. The format is cell-based. The note with it: Homo sapiens, PC-3; Table 10; Prostate Ca; read-out: Effect on Tumor Cell Growth EC50, PC3.
The subject of experiment [9] is Ramos. The note with it: cited from earlier work.
A further experiment deals with RPMI8226. As to the kind of experiment: Proliferation/viability assay. It counts as cell-based. The note with it: Homo sapiens, RPMI-8226; Table 10; Myeloma; read-out: Effect on Tumor Cell Growth EC50, RPMI 8226.
The test system of a further experiment is SuDHL6. Description: Proliferation/viability assay. It counts as cell-based. The note with it: Homo sapiens, SU-DHL-6; Table 10; B Lymphoma; read-out: Effect on Tumor Cell Growth EC50, SuDHL6.

Where two headings read alike, the source gives them in different places.

Broadly, the IC50 is the concentration that gives 50% inhibition.

BTK, sequence (Q06187 whole entry): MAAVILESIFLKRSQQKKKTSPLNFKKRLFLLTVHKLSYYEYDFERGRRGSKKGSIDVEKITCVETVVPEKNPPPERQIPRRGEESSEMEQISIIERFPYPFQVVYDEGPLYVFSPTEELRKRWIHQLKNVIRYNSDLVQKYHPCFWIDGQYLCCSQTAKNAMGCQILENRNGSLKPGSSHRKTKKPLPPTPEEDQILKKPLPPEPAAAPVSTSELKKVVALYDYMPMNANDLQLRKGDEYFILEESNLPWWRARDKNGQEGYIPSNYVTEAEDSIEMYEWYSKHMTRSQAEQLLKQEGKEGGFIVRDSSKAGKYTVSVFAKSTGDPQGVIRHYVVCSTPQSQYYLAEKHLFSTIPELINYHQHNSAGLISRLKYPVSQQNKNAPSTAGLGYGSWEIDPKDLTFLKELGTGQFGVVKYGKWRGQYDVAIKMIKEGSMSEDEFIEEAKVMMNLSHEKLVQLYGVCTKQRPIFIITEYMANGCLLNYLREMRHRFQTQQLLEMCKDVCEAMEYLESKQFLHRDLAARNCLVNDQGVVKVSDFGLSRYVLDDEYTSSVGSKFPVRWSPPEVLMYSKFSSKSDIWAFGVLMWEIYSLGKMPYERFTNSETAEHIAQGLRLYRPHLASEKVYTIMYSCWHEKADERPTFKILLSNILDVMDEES
T1 sequence (P07948 whole entry): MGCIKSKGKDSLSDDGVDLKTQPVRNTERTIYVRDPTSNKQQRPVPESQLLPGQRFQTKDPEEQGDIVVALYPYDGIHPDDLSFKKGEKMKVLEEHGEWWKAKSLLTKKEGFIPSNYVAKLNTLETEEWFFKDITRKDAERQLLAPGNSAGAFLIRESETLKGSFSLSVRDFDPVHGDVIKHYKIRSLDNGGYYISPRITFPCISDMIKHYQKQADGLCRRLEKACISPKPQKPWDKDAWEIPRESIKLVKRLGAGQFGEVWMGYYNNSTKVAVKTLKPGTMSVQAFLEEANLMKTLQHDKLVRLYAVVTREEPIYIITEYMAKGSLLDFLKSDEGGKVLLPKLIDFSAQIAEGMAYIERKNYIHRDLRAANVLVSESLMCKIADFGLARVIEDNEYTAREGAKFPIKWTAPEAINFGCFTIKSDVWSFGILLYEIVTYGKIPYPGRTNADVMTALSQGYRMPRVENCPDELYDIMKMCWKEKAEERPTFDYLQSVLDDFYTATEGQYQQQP

In the case of `CCN(CC)CCOc1ccc(Nc2cc3c(cn2)cc(-c2ccccc2)c(=O)n3C2CCOCC2)nc1` [Compound 70, 7-(5-(2-(diethylamino)ethoxy)pyridin-2-ylamino)-3-phenyl-1-(tetrahydro-2H-pyran-4-yl)-1,6-naphthyridin-2(1H)-one], the IC50 against BTK, at BTK (read-out: BTK IC50), on Lyn [3], against Lyn [5] and on Src was 0.1 to 1 µM in each case. Besides, the EC50 was greater than 10 µM with Ramos [1] (48 hrs, read-out: Ramos EC50); less than 1 µM in the experiment with DoHH2 [4] (48 hrs, read-out: DoHH2 EC50); less than 1 µM in the experiment with DoHH2 [4] (Table 4, DoHH2 cells, read-out: EC50 (Proliferation)); 0.33 µM in experiment [7]. Moreover, the “Effect on Cell Cycle” value with DoHH2 cells is listed as “G1 Arrest”. Also, the “Inhibition of phosphorylation of SFKs (Western blot)” value in [2] is given as “dose-dependent decrease of phosphorylation of SFKs”. Further, in [6], the “Inhibition of PLCγ2 phosphorylation (Western blot)” value was “observed this inhibition”.

Regarding `C=CC(=O)N1CCC[C@@H](n2nc(-c3ccc(Oc4ccccc4)cc3)c3c(N)ncnc32)C1` [PCI-32765, ibrutinib], the “Response of DoHH2 to known drugs” value in the experiment on DoHH2 [8] is recorded as “responds”. For the same compound, the EC50 was greater than 10 µM in the experiment on Ramos [1] (Table 10, B Lymphoma, read-out: Effect on Tumor Cell Growth EC50, Ramos); 2.8 µM in the experiment with DoHH2 [4] (Table 10, B Lymphoma, read-out: Effect on Tumor Cell Growth EC50, DOHH2); greater than 10 µM in the experiment on PC3; greater than 10 µM with RPMI8226; 5.5 µM in the experiment on SuDHL6. Further, the “Resistance of Ramos to known kinase inhibitors” value with Ramos [9] was “resistant”.
